Data as given in patent US8557776B2, “Compounds and methods for 18F labeled agents” (Bayer Pharma AG, priority 2006, dated 2013).
*1 amine or outer side, *2 acyl side, *3 side chain or, on linkers, in order; H or OH if unused. Where a SMILES comes first, the peptide text is derived from it. [ ]: non-standard residue; d: D form. The star is where a group is joined. γ4hIle = CC[C@H](C)[C@@H](CCC(=O)[*:2])N[*:1]; Benzoyl(3-CN,4-F) = N#Cc1cc(C(=O)*)ccc1F; Ava = NCCCCC(=O)O

Columns and labels:
[1] = tested on: human prostate cancer PC-3; experiment: Biodistribution of F-18-Bombesin Analog in nude mice bearing human prostate cancer PC-3; assay type: in vivo
Method: Nude mice bearing human prostate cancer PC-3 were injected with 100 μl radioactive peptide dissolved in PBS containing 135 kBq per animal. For blocking 100 μg unlabeled gastrin-releasing peptide was co-injected. One hour post injection the animals were sacrificed and organs dissected for counting in a gamma-counter. Values are expressed as percent of the injected dose per gram organ weight.

Row | Compound | Panc. % (Table 1) | Tumor/Tissue-Ratios T/Blood ([1]; 1 h Blocking: 100 μg unlabeled gastrin-releasing peptide co-injected) | Tumor/Tissue-Ratios T/Blood ([1]; 1 h post injection) | tumor-tissue ratio relative to that of 18F-choline (FCH) and 18F-FB-Lys-BN ([1]; FIG. 8, protocol as above) [time higher] | accumulation in tumor (in words) ([1]; PC-3 tumor, 1 h post injection) | specificity of targeting (in words) ([1]; blocking values low in tumor on co-injection of gastrin-releasing peptide)
1 | 3-CF3,4-F-Benzoyl-Arg-Ava-Gln-Trp-Ala-Val-NMeGly-His-Sta-Leu-NH2 (SEQ ID NO: 421) (RXQWAVGHXL; 3-CF3,4-F-benzoyl N-cap, Ava, NMeGly, Sta, C-amide) | 1,42% | – | – | – | – | –
2 | CC[C@H](C)[C@@H](CCC(=O)N[C@@H](CC(C)C)C(N)=O)NC(=O)[C@H](Cc1c[nH]cn1)NC(=O)CNC(=O)[C@@H](NC(=O)[C@H](C)NC(=O)[C@H](Cc1c[nH]c2ccccc12)NC(=O)[C@H](CCC(N)=O)NC(=O)CCCCNC(=O)c1ccc(F)c(C#N)c1)C(C)C [F-18-Bombesin Analog] ({Benzoyl(3-CN,4-F)-Ava}-QWAVGH[γ4hIle]L-NH2; N-terminus assumed) | – | 1.57 ± 0.22 | 21.03 ± 11.92 | 2.5 | accumulates in tumor | specific
